According to patent US12202827B2, “Aldosterone synthase inhibitor” (DAMIAN PHARMA AG, priority 2016, dated 2025):
Read-outs that look alike come from different tables or passages of the source.

Tests used:
[1] = Shake-flask solubility study; conditions: 20° C.
[2] = Method: The X-ray powder diffraction studies were performed using a Bruker AXS D2 PHASER in Bragg-Brentano configuration. Using a Cu anode at 30 kV, 10 mA; sample stage standard rotating; monochromatisation by a Kβ-filter (0.5% Ni). Slits: fixed divergence slits 1.0 mm (=0.61°), primary axial Soller slit 2.5°, secondary axial Soller slit 2.5°. Detector: Linear detector LYNXEYE with receiving slit 5° detector opening. […] Measurement conditions: scan range 5 to 45° 2theta, sample rotation 5 rpm, 0.5 s/step, 0.010°/step, 3.0 mm detector slit; and all measuring conditions were logged in the instrument control file. As system suitability, corundum sample A26-826-S(NIST standard) was measured daily.
Remark: listed apart in the source
[3] = not given; remark: listed apart in the source
[4] = up to 225° C., TGA/DSC
Method: The thermogravimetric analysis and differential scanning calorimetry (TGA/DSC) studies were performed using a Mettler Toledo TGA/DSC1 STARe System with a 34-position auto sampler. The samples were made using Al crucibles (40 μL; pierced). Typically 5-10 mg of sample was loaded into a pre-weighed Al crucible and was kept at 30° C. for 5 minutes, after which it was heated at 10° C./min from 30° C. to 350° C. A nitrogen purge of 40 ml/min was maintained over the sample. The software used for data collection and evaluation was STARe Software v12.10 build 5937. No corrections were applied to the thermogram.

[5] = Solid state characterization of salts obtained as solids; assay type: physicochemical
[6] = Acetic acid, sample DF1181-5-S11
[7] = Acetonitrile, sample DF1181-5-S7
[8] = Dichloromethane, sample DF1181-5-S2
[9] = Ethyl acetate, sample DF1181-5-S5
[10] = Methyl tert-butyl ether, sample DF1181-5-S3

N#Cc1ccc([C@H]2CCCc3cncn32)cc1.O=P(O)(O)O
Solubility [1, 6]: 118 to 1180 mg/mL
Solubility ([1]; Acetone, sample DF1181-5-S4): <0.09 mg/mL
Solubility [1, 7]: <0.11 mg/mL
Solubility [1, 8]: <0.10 mg/mL
Solubility ([1]; Ethanol, sample DF1181-5-S6): 0.1 to 1.0 mg/mL
Solubility [1, 9]: <0.09 mg/mL
Solubility ([1]; Methanol, sample DF1181-5-S1): 112 to 1120 mg/mL
Solubility [1, 10]: <0.11 mg/mL
Solubility ([1]; Toluene, sample DF1181-5-S10): <0.10 mg/mL
Solubility ([1]; Water, sample DF1181-5-S9): >1000 mg/mL
Solubility ([1]; n-Heptane, sample DF1181-5-S8): <0.11 mg/mL
XRPD after solubility determination [2, 6]: Amorphous
XRPD after solubility determination ([2]; Acetone, sample DF1181-5-S4): Form I-Conform starting material
XRPD after solubility determination [2, 7]: Form I-Conform starting material
XRPD after solubility determination [2, 8]: Form I-Conform starting material
XRPD after solubility determination ([2]; Ethanol, sample DF1181-5-S6): Form I-Conform starting material
XRPD after solubility determination [2, 9]: Form I-Conform starting material
XRPD after solubility determination ([2]; Methanol, sample DF1181-5-S1): Form I-Conform starting material
XRPD after solubility determination [2, 10]: Form I-Conform starting material
XRPD after solubility determination ([2]; Toluene, sample DF1181-5-S10): Form I-Conform starting material
XRPD after solubility determination ([2]; Water, sample DF1181-5-S9): Form I-Conform starting material
XRPD after solubility determination ([2]; n-Heptane, sample DF1181-5-S8): Form I-Conform starting material
Appearance (25° C./60% RH, 1 month): White
Chiral Purity (25° C./60% RH, 1 month): >99.5
Polymorph by XRPD (25° C./60% RH, 1 month): Conform
Purity by HPLC (25° C./60% RH, 1 month): 99.77
Water content (25° C./60% RH, 1 month): 0.2
Appearance (25° C./60% RH, 3 months): White
Chiral Purity (25° C./60% RH, 3 months): >99.5
Polymorph by XRPD (25° C./60% RH, 3 months): Conform
Purity by HPLC (25° C./60% RH, 3 months): 99.81
Water content (25° C./60% RH, 3 months): 0.2
Appearance (25° C./60% RH, 6 months): White
Chiral Purity (25° C./60% RH, 6 months): >99.5
Polymorph by XRPD (25° C./60% RH, 6 months): Conform
Purity by HPLC (25° C./60% RH, 6 months): 99.82
Water content (25° C./60% RH, 6 months): 0.2
Appearance (25° C./60% RH, 9 months): White
Chiral Purity (25° C./60% RH, 9 months): >99.5
Polymorph by XRPD (25° C./60% RH, 9 months): Conform
Purity by HPLC (25° C./60% RH, 9 months): 99.84
Water content (25° C./60% RH, 9 months): 0.2
Appearance (25° C./60% RH, 12 months): White
Chiral Purity (25° C./60% RH, 12 months): >99.5
Polymorph by XRPD (25° C./60% RH, 12 months): Conform
Purity by HPLC (25° C./60% RH, 12 months): 99.81
Water content (25° C./60% RH, 12 months): 0.3
Appearance (25° C./60% RH, Initial): White
Chiral Purity (25° C./60% RH, Initial): >99.5
Polymorph by XRPD (25° C./60% RH, Initial): Conform
Purity by HPLC (25° C./60% RH, Initial): 99.87
Water content (25° C./60% RH, Initial): 0.3
Appearance (30° C./65%RH, 1 month): White
Chiral Purity (30° C./65%RH, 1 month): >99.5
Polymorph by XRPD (30° C./65%RH, 1 month): Conform
Purity by HPLC (30° C./65%RH, 1 month): 99.76
Water content (30° C./65%RH, 1 month): 0.2
Appearance (30° C./65%RH, 3 months): White
Chiral Purity (30° C./65%RH, 3 months): >99.5
Polymorph by XRPD (30° C./65%RH, 3 months): Conform
Purity by HPLC (30° C./65%RH, 3 months): 99.81
Water content (30° C./65%RH, 3 months): 0.3
Appearance (30° C./65%RH, 6 months): White
Chiral Purity (30° C./65%RH, 6 months): >99.5
Polymorph by XRPD (30° C./65%RH, 6 months): Conform
Purity by HPLC (30° C./65%RH, 6 months): 99.84
Water content (30° C./65%RH, 6 months): 0.2
Appearance (30° C./65%RH, 9 months): White
Chiral Purity (30° C./65%RH, 9 months): >99.5
Polymorph by XRPD (30° C./65%RH, 9 months): Conform
Purity by HPLC (30° C./65%RH, 9 months): 99.86
Water content (30° C./65%RH, 9 months): 0.2
Appearance (30° C./65%RH, 12 months): White
Chiral Purity (30° C./65%RH, 12 months): >99.5
Polymorph by XRPD (30° C./65%RH, 12 months): Conform
Purity by HPLC (30° C./65%RH, 12 months): 99.85
Water content (30° C./65%RH, 12 months): 0.3
Appearance (30° C./65%RH, Initial): White
Chiral Purity (30° C./65%RH, Initial): >99.5
Polymorph by XRPD (30° C./65%RH, Initial): Conform
Purity by HPLC (30° C./65%RH, Initial): 99.87
Water content (30° C./65%RH, Initial): 0.3
Appearance (40° C./75% RH, 1 month): White
Chiral Purity (40° C./75% RH, 1 month): >99.5
Polymorph by XRPD (40° C./75% RH, 1 month): Conform
Purity by HPLC (40° C./75% RH, 1 month): 99.80
Water content (40° C./75% RH, 1 month): 0.3
Appearance (40° C./75% RH, 3 months): White
Chiral Purity (40° C./75% RH, 3 months): >99.5
Polymorph by XRPD (40° C./75% RH, 3 months): Conform
Purity by HPLC (40° C./75% RH, 3 months): 99.79
Water content (40° C./75% RH, 3 months): 0.5
Appearance (40° C./75% RH, 6 months): White
Chiral Purity (40° C./75% RH, 6 months): >99.5
Polymorph by XRPD (40° C./75% RH, 6 months): Conform
Purity by HPLC (40° C./75% RH, 6 months): 99.88
Water content (40° C./75% RH, 6 months): 0.3
Appearance (40° C./75% RH, Initial): White
Chiral Purity (40° C./75% RH, Initial): >99.5
Polymorph by XRPD (40° C./75% RH, Initial): Conform
Purity by HPLC (40° C./75% RH, Initial): 99.87
Water content (40° C./75% RH, Initial): 0.3
Long-term stability (purity, water content, chiral purity), in words (all assessed stability conditions and time periods): very stable
XRPD (polymorphic form) ([3]; wells 1-6, solvent Formic acid, co-solvent Water): Form I
XRPD (polymorphic form) ([3]; wells 7-12, solvent 2-Butanone, co-solvent n-Heptane): Form I
XRPD (polymorphic form) ([3]; wells 13-18, solvent Acetic acid, co-solvent Water): Form I
XRPD (polymorphic form) ([3]; wells 19-24, solvent Cyclohexanone, co-solvent n-Heptane): Form I
XRPD (polymorphic form) ([3]; wells 25-30, solvent Methanol, co-solvent Water): Form I
XRPD (polymorphic form) ([3]; wells 31-36, solvent Ethylacetate, co-solvent n-Heptane): Form I
XRPD (polymorphic form) ([3]; wells 37-42, solvent Ethanol, co-solvent Water): Form I
XRPD (polymorphic form) ([3]; wells 43-48, solvent Isopropyl acetate, co-solvent n-Heptane): Form I
XRPD (polymorphic form) ([3]; wells 49-54, solvent 2-Propanol, co-solvent Water): Form I
XRPD (polymorphic form) ([3]; wells 55-60, solvent Cyclopentyl methyl ether, co-solvent n-Heptane): Form I
XRPD (polymorphic form) ([3]; wells 61-66, solvent Acetone, co-solvent Water): Form I
XRPD (polymorphic form) ([3]; wells 67-72, solvent Toluene, co-solvent n-Heptane): Form I
XRPD (polymorphic form) ([3]; wells 79-84, solvent Cyclohexane, co-solvent n-Heptane): Form I
XRPD (polymorphic form) ([3]; wells 85-90, solvent Tetrahydrofuran, co-solvent Water): Form I
XRPD (polymorphic form) ([3]; wells 91-96, solvent Chlorobenzene, co-solvent n-Heptane): Form I
Mass loss upon heating [4]: 1.4%
Crystallinity [5]: good
Hygroscopicity (DVS) [5]: low
Polymorph tendency (XRPD) [5]: Not observed
Solid phase transition (XRPD) [5]: Not observed
Solvation [5]: anhydrous
Water solubility [5]: good
